Test results from patent EP0638079B1, “DEAZAAMINOPTERINS FOR TREATMENT OF INFLAMMATION” (SRI INTERNATIONAL, priority 1992, dated 1993).

Columns and labels:
L. casei = conditions: folate dependent bacteria; cited from earlier work
S. faecium = conditions: folate dependent bacteria; cited from earlier work
[1] = test system: human liver cell line (Chang liver)
DBA/1 mice = test: Type II collagen arthritis mouse model (visual inflammation, rear paw swelling); format: in vivo; conditions: for No Mice on day indicated (visual evidence of inflammation), Day 30 / No Mice on day indicated (visual evidence of inflammation), Day 37 / No Mice on day indicated (visual evidence of inflammation), Day 44 / Ave. thickness of rear paws (mm) over days 30-44, Treated: Table IIA; for No Mice on day indicated (visual evidence of inflammation), Day 30 / No Mice on day indicated (visual evidence of inflammation), Day 37 / No Mice on day indicated (visual evidence of inflammation), Day 44 / No mice affected on day indicated (visual evidence of inflammation), Day 30 / No mice affected on day indicated (visual evidence of inflammation), Day 37 / No mice affected on day indicated (visual evidence of inflammation), Day 44: affected mice/mice in group; for No Mice on day indicated (visual evidence of inflammation), Day 30: dose (mg/kg) per compound as in Dose column; for No Mice on day indicated (visual evidence of inflammation), Day 37 / No Mice on day indicated (visual evidence of inflammation), Day 44 / No mice affected on day indicated (visual evidence of inflammation), Day 30: dose per compound as in Dose column; for Ave. thickness of rear paws (mm) over days 30-44, Treated / Avg. thickness of rear paws (mm) over days 30-44, Treated: caliper; for Avg. thickness of rear paws (mm) over days 30-44, Treated / No mice affected on day indicated (visual evidence of inflammation), Day 30 / No mice affected on day indicated (visual evidence of inflammation), Day 37 / No mice affected on day indicated (visual evidence of inflammation), Day 44: Table IIB
From the text: The following data illustrate administration to mice of several deazaaminopterin compounds of the invention and methotrexate in the evaluation of anti-inflammatory activity. The data are presented as two separate observations, the visually observed presence of inflammation in the mouse, and the caliper-measured degree of swelling of the rear paws of the mouse.
The efficacy evaluation used a mouse model of inflammatory disease that occurs in response to an antigenic challenge with Type II collagen [J. S. Courtenay et al., Nature, 283, 666-668 (1980)].
The fundamental aspects of the model allow it to serve as a representative presentation of human disease. The parallels between the known aspects of the mouse model and rheumatoid arthritis include a humoral response in which antibodies are produced to an antigen that is present in the joint tissue and the antigenic challenge is accompanied by cell-mediated aspects of immunity. The resultant inflammation of the joint tissue yields facets of periostitis, synovial lining hyperplasia, degradation of bone and cartilage and pannus and new bone formation.
The basic elements of the model included the immunization of DBA/1 mice with a suspension of fetal bovine Type II collagen (1 mg/ml) prepared in complete Freund's adjuvant. The primary injection was given using 0.1 ml of the collagen emulsion giving a total of 0.1 mg of Type II collagen per mouse. The animals were then given a booster injection of Type II collagen (100 µg in 0.01 M acetic acid ) on day 21 by intraperitoneal injection.
Typically, in this model the untreated positive control animals have an incidence of arthritis ranging from 90 to 100% of injected animals at day 44.
The effect of methotrexate and test compounds on the extent of inflammation was determined by direct analysis of paw swelling using caliper measurements. The results are presented in Table IIA, and show a direct correlation between the decrease in the number of animals having disease and a decrease in the extent of inflammation, as determined by paw swelling. Table IIA […]

[2] = biological target: T1, bovine liver dihydrofolate reductase (Bos taurus, UniProt P00376); conditions: cited from earlier work
T1 construct: host or cells: bovine liver
T1 sequence (P00376 1-187): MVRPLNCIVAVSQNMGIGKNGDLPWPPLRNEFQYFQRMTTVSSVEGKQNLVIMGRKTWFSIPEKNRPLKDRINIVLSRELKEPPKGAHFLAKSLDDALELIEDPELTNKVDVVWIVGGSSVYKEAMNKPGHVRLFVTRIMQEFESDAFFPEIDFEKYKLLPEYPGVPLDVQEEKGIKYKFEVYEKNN

[3] = test system: L1210 murine leukemia cells; conditions: cited from earlier work
P388 leukemia = conditions: against P388 leukemia in BDF1 mice; cited from earlier work
L1210 = conditions: against L1210 in BDF1 mice; cited from earlier work
[4] = 30 day measurement (first value)
[5] = 44 day measurement (second value)

| Compound | Ratio Of Cytotoxic Potency Versus Methotrexate For Inhibition Of Human Liver Cell Growth In Culture [1] | No Mice on day indicated (visual evidence of inflammation), Day 30 (DBA/1 mice) | No Mice on day indicated (visual evidence of inflammation), Day 37 (DBA/1 mice) | No Mice on day indicated (visual evidence of inflammation), Day 44 (DBA/1 mice) | other results |
| --- | --- | --- | --- | --- | --- |
| Nc1nc(N)c2cc(CCc3ccc(C(=O)NC(CCC(=O)O)C(=O)O)cc3)cnc2n1 (stereo not drawn) [5,10-Dideazaaminopterin] | 2.46 |  |  |  | growth inhibition (L. casei): effective growth inhibitor; growth inhibition (S. faecium): effective growth inhibitor |
| CCc1c(CNc2ccc(C(=O)NC(CCC(=O)O)C(=O)O)cc2)cnc2nc(N)nc(N)c12 (stereo not drawn) [5-Et-10-H (5-Et-5-DA)] | 4.50 | 2/8 | 5/8 | 2/8 |  |
| CCc1c(CN(C)c2ccc(C(=O)NC(CCC(=O)O)C(=O)O)cc2)cnc2nc(N)nc(N)c12 (stereo not drawn) [5-Et-10-Me (5-Et-5-DMTX)] | 3.18 | 0/7 | 1/7 | 1/7 |  |
| C#CCN(Cc1cnc2nc(N)nc(N)c2c1)c1ccc(C(=O)NC(CCC(=O)O)C(=O)O)cc1 (stereo not drawn) [5-H-10-Propargyl (10-Prgl-5-DA), 10-propargyl-5-deazaaminopterin] | 1.26 | 3/8 | 2/8 | 6/8 |  |
| C=CCN(Cc1cnc2nc(N)nc(N)c2c1C)c1ccc(C(=O)NC(CCC(=O)O)C(=O)O)cc1 (stereo not drawn) [5-Me-10-Allyl (5-Me-10-Allyl-5-DA)] |  | 0/8 | 0/8 | 0/8 |  |
| Cc1c(CNc2ccc(C(=O)NC(CCC(=O)O)C(=O)O)cc2)cnc2nc(N)nc(N)c12 (stereo not drawn) [5-Me-10-H (5-Me-5-DA), 5-methyl-5-deazaaminopterin] | 4.39 |  | 2/8 | 6/8 |  |
| Cc1c(CN(C)c2ccc(C(=O)NC(CCC(=O)O)C(=O)O)cc2)cnc2nc(N)nc(N)c12 (stereo not drawn) [5-Me-10-Me (5-Me-5-DMTX), 5-methyl-5-deazamethotrexate] | 2.79 | 1/8 | 4/8 | 5/8 |  |
| C#CCN(Cc1cnc2nc(N)nc(N)c2c1C)c1ccc(C(=O)NC(CCC(=O)O)C(=O)O)cc1 (stereo not drawn) [5-Me-10-Propargyl (5-Me-10-Prgl-5-DA), 10-propargyl-5-methyl-5-deazaaminopterin] | 21.18 | 3/8 | 3/8 | 2/8 | Ave. thickness of rear paws (mm) over days 30-44, Treated (DBA/1 mice; 30 day measurement (first value in parentheses)): (2.29-2.29) mm; Ave. thickness of rear paws (mm) over days 30-44, Treated (DBA/1 mice; 44 day measurement (second value in parentheses)): (2.29-2.29) mm |
| CCCc1c(CNc2ccc(C(=O)N[C@@H](CCC(=O)O)C(=O)O)cc2)cnc2nc(N)nc(N)c12 [5-Pr-10-H (5-Pr-5-DA), N-[4-[[(2,4-Diamino-5-propylpyrido[2,3-d]pyrimidin-6-yl)methyl]amino]benzoyl]-L-glutamic Acid] | 1.78 | 0/7 | 0/7 | 0/7 |  |
| CC(Cc1cnc2nc(N)nc(N)c2c1)c1ccc(C(=O)NC(CCC(=O)O)C(=O)O)cc1 (stereo not drawn) [10-Me-5,10-Dideazaaminopterin] | 2.69 |  |  |  |  |
| CCCCc1c(CNc2ccc(C(=O)N[C@@H](CCC(=O)O)C(=O)O)cc2)cnc2nc(N)nc(N)c12 [Compound 5-Bu-10-NH] | 7.20 |  |  |  |  |
| Cc1c(CNc2ccc(C(=O)N[C@@H](CCC(=O)O)C(=O)O)s2)cnc2nc(N)nc(N)c12 [Example B', N-[5-[[(2,4-Diamino-5-methylpyrido[2,3-d]pyrimidin-6-yl)methyl]amino]thiophene-2-carbonyl]-L-glutamic Acid] |  |  |  |  | Avg. thickness of rear paws (mm) over days 30-44, Treated (DBA/1 mice; [4]): 2.19 mm; Avg. thickness of rear paws (mm) over days 30-44, Treated (DBA/1 mice; [5]): 2.33 mm; No mice affected on day indicated (visual evidence of inflammation), Day 30 (DBA/1 mice): 0/5; No mice affected on day indicated (visual evidence of inflammation), Day 37 (DBA/1 mice): 2/5; No mice affected on day indicated (visual evidence of inflammation), Day 44 (DBA/1 mice): 2/5 |
| Cc1c(CN(C)c2ccc(C(=O)N[C@@H](CCC(=O)O)C(=O)O)s2)cnc2nc(N)nc(N)c12 [Example C', N-[5-[[(2,4-Diamino-5-methylpyrido[2,3-d]pyrimidin-6-yl)methyl]methylamino]thiophene-2-carbonyl]-L-glutamic Acid] |  |  |  |  | Avg. thickness of rear paws (mm) over days 30-44, Treated (DBA/1 mice; [4]): 2.13 mm; Avg. thickness of rear paws (mm) over days 30-44, Treated (DBA/1 mice; [5]): 2.27 mm; No mice affected on day indicated (visual evidence of inflammation), Day 30 (DBA/1 mice): 0/8; No mice affected on day indicated (visual evidence of inflammation), Day 37 (DBA/1 mice): 1/8; No mice affected on day indicated (visual evidence of inflammation), Day 44 (DBA/1 mice): 3/8 |
| CCc1c(CN(C)c2ccc(C(=O)N[C@@H](CCC(=O)O)C(=O)O)s2)cnc2nc(N)nc(N)c12 [Example D', N-[5-[[(2A-Diamino-5-ethylpyrido[2,3d] -pyrimidin-6-yl)methyl]methylamino]thiophene-2-carbonyl]-L-glutamic Acid] |  |  |  |  | Avg. thickness of rear paws (mm) over days 30-44, Treated (DBA/1 mice; [4]): 2.13 mm; Avg. thickness of rear paws (mm) over days 30-44, Treated (DBA/1 mice; [5]): 2.32 mm; No mice affected on day indicated (visual evidence of inflammation), Day 30 (DBA/1 mice): 2/8; No mice affected on day indicated (visual evidence of inflammation), Day 37 (DBA/1 mice): 4/8; No mice affected on day indicated (visual evidence of inflammation), Day 44 (DBA/1 mice): 7/8 |
| Nc1nc(N)c2cc(CNc3ccc(C(=O)N[C@@H](CCC(=O)O)C(=O)O)cc3)cnc2n1 [L-5-deazaaminopterin] |  |  |  |  | potency as inhibitor compared with methotrexate [2]: equipotent with methotrexate; potency as inhibitor compared with methotrexate [3]: equipotent with methotrexate; in vivo potency compared with methotrexate (P388 leukemia): equipotent with methotrexate; in vivo potency compared with methotrexate (L1210): equipotent with methotrexate |
| CN(Cc1cnc2nc(N)nc(N)c2n1)c1ccc(C(=O)N[C@@H](CCC(=O)O)C(=O)O)cc1 [MTX, methotrexate, reference compound] | 1.00 | 1/22 | 1/22 | 6/22 | Avg. thickness of rear paws (mm) over days 30-44, Treated (DBA/1 mice; [4]): 2.128 mm; Avg. thickness of rear paws (mm) over days 30-44, Treated (DBA/1 mice; [5]): 2.34 mm; No mice affected on day indicated (visual evidence of inflammation), Day 30 (DBA/1 mice): 1/22; No mice affected on day indicated (visual evidence of inflammation), Day 37 (DBA/1 mice): 1/22; No mice affected on day indicated (visual evidence of inflammation), Day 44 (DBA/1 mice): 6/22; effectiveness of prophylactic regimen (DBA/1 mice; drug begun two days prior to administration of antigen versus starting drug at day 19): more effective than starting drug at day 19 |
